We go through 10 compounds from ChEMBL document CHEMBL1201862, “PubChem BioAssay data set” (2004).

Some test systems named below: HCT-116; SK-OV-3; CAKI-1; UACC-62; A549; Malme-3M; KM12; NCI-H522; RPMI-8226; T47D; MCF7; U-251; SF-268; HCT-15; HOP-62; OVCAR-8; OVCAR-5; MDA-N; TK-10.
Common to all, as to experiment: NCI tumour cell line growth inhibition, 48 h

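Step 1: Grow cells in 96-well plates. Step 2: Expose to compound for 48 hours at 5 concentrations. Step 3: Interpolate endpoints linearly; if unreached, use highest concentration. GI50 = concentration required for 50% inhibition of growth.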 The source made the active and inactive calls. No stated cut-off is given here; in the data, active = GI50 up to about 1.1 µM and inactive = higher.

As to `O=C(SCc1cccc2ccccc12)c1ccc(Cl)cc1`, the GI50 in the test on HCT-116 is 66.1 µM (inactive); in the test with SK-OV-3, > 100 µM (inactive); in the test with CAKI-1, > 100 µM (inactive); with UACC-62, > 100 µM (inactive); with A549 it was > 100 µM (inactive); in the test on Malme-3M, 96.6 µM (inactive). Moreover, the GI50 is > 100 µM (inactive) in the test with KM12; 45.8 µM (inactive) in the test on NCI-H522; 46.9 µM (inactive) in the test with RPMI-8226; 81.7 µM (inactive) in the test with T47D; > 100 µM (inactive) with MCF7; > 100 µM (inactive) in the test on U-251. The GI50 with SF-268 was 80.4 µM (inactive); with HCT-15, 50.9 µM; in the test on HOP-62 it was > 100 µM (inactive); in the test on OVCAR-8 it was > 100 µM (inactive); in the test on OVCAR-5, > 100 µM (inactive); in the test with MDA-N it was > 100 µM (inactive). Also, the GI50 in the test on TK-10 was > 100 µM (inactive).

Turning to `Nc1nc(-c2cc(-c3cccc4ccccc34)nc(N)n2)cc(-c2cccc3ccccc23)n1`, the GI50 in the test on HCT-116, with SK-OV-3, in the test on CAKI-1, with UACC-62, in the test with A549 and in the test on Malme-3M was > 100 µM (inactive) throughout. The GI50 with KM12, in the test with NCI-H522, in the test with RPMI-8226, in the test on T47D, in the test on MCF7 and with U-251 was > 100 µM (inactive) each time. In addition, the GI50 is > 100 µM (inactive) in the test with SF-268; above 100 µM with HCT-15; > 100 µM (inactive) in the test with HOP-62; > 100 µM (inactive) in the test with OVCAR-8; > 100 µM (inactive) in the test with OVCAR-5; > 100 µM (inactive) in the test on MDA-N. The GI50 with TK-10 is > 100 µM (inactive).

For `O=C(N/N=C/c1ccccc1)c1cccc2nc3ccccc3nc12`, the GI50 in the test with HCT-116 was > 100 µM (inactive); in the test with SK-OV-3, > 88.3 µM (inactive); in the test with CAKI-1, > 100 µM (inactive); in the test on UACC-62, > 100 µM (inactive); in the test with A549 it was 3.81 µM (inactive); in the test on Malme-3M, > 100 µM (inactive). The GI50 with KM12 was 54 µM (inactive); in the test with NCI-H522, 44.8 µM (inactive); in the test on RPMI-8226 it was > 100 µM (inactive); with T47D, > 100 µM (inactive); in the test on MCF7, > 45 µM (inactive); with U-251, > 100 µM (inactive). The GI50 in the test on SF-268 is > 80.2 µM (inactive); with HCT-15, 9.66 µM; with HOP-62, 4.15 µM (inactive); in the test with OVCAR-8 it was > 85.7 µM (inactive); in the test with OVCAR-5, > 100 µM (inactive); in the test with MDA-N it was 54.2 µM (inactive). The GI50 in the test with TK-10 is > 100 µM (inactive).

With `O=C(O)CNC(=O)C1NC(C(F)(F)F)(C(F)(F)F)OC1(C(F)(F)F)C(F)(F)F` (stereo not given), the GI50 with HCT-116, in the test with SK-OV-3, in the test on CAKI-1, in the test with UACC-62, with A549 and in the test with Malme-3M was > 100 µM (inactive) in each case. Also, the GI50 in the test with KM12, with NCI-H522, with RPMI-8226, in the test with T47D, in the test with MCF7 and in the test with U-251 was > 100 µM (inactive) each time. In addition, the GI50 with SF-268 was > 100 µM (inactive); with HCT-15, above 100 µM; with HOP-62, > 100 µM (inactive); with OVCAR-8 it was > 100 µM (inactive); in the test with OVCAR-5, > 100 µM (inactive); in the test with MDA-N, > 100 µM (inactive). The GI50 in the test on TK-10 is > 100 µM (inactive).

Consider `O=S(=O)(N1CCCCN(S(=O)(=O)C(F)(F)F)CCCN(S(=O)(=O)C(F)(F)F)CCCCN(S(=O)(=O)C(F)(F)F)CCCN(S(=O)(=O)C(F)(F)F)CCCCN(S(=O)(=O)C(F)(F)F)CCCN(S(=O)(=O)C(F)(F)F)CCCCN(S(=O)(=O)C(F)(F)F)CCC1)C(F)(F)F`, for which the GI50 with HCT-116, in the test on SK-OV-3, with CAKI-1, in the test with UACC-62, in the test on A549 and with Malme-3M was > 31.6 µM (inactive) in each case. The GI50 is > 31.6 µM (inactive) in the test on KM12; > 31.6 µM (inactive) in the test on NCI-H522; 78.7 µM (inactive) with RPMI-8226; > 31.6 µM (inactive) in the test with T47D; > 10 µM (inactive) in the test with MCF7; > 100 µM (inactive) in the test with U-251. Besides, the GI50 was > 31.6 µM (inactive) with SF-268; above 31.6 µM in the test with HCT-15; > 31.6 µM (inactive) in the test on HOP-62; > 31.6 µM (inactive) in the test on OVCAR-8; > 100 µM (inactive) with OVCAR-5; > 31.6 µM (inactive) in the test on MDA-N. Also, in the test on TK-10, the GI50 was > 31.6 µM (inactive).

Regarding `CC1(Br)Cc2ccccc2C1=O` (stereo not given), the GI50 with HCT-116 was 3.86 µM (inactive); with SK-OV-3, 9.06 µM (inactive); in the test on CAKI-1, 8.71 µM (inactive); with UACC-62, 1.29 µM (inactive); with A549, 12.5 µM (inactive); with Malme-3M it was 3.36 µM (inactive). In addition, the GI50 is 12.6 µM (inactive) in the test on KM12; 4.14 µM (inactive) in the test with NCI-H522; 5.65 µM (inactive) with RPMI-8226; 9.31 µM (inactive) in the test on T47D; 3.73 µM (inactive) in the test with MCF7; 4.59 µM (inactive) in the test with U-251. Further, the GI50 in the test with SF-268 was 4.68 µM (inactive); with HCT-15, 7.78 µM; in the test on HOP-62, 15.3 µM (inactive); in the test on OVCAR-8 it was 8.57 µM (inactive); with OVCAR-5, 3.43 µM (inactive); in the test with MDA-N, 3.92 µM (inactive). For the same compound, in the test with TK-10, the GI50 is 16.1 µM (inactive).

For `N=C(N)NC(=N)Nc1c(F)c(F)c(F)c(F)c1F`, the GI50 is 70.5 µM (inactive) in the test on HCT-116; > 100 µM (inactive) in the test on SK-OV-3; > 100 µM (inactive) in the test with CAKI-1; > 100 µM (inactive) in the test with UACC-62; > 100 µM (inactive) in the test with A549; 69 µM (inactive) in the test on Malme-3M. The GI50 with KM12 was > 100 µM (inactive); in the test on NCI-H522, 93.8 µM (inactive); with RPMI-8226, 52.7 µM (inactive); in the test with T47D it was 61.8 µM (inactive); in the test on MCF7, 49.4 µM (inactive); with U-251, > 100 µM (inactive). For the same compound, the GI50 in the test with SF-268 is > 100 µM (inactive); in the test on HCT-15 it was above 100 µM; in the test on HOP-62, > 100 µM (inactive); in the test on OVCAR-8 it was > 100 µM (inactive); in the test on OVCAR-5, > 100 µM (inactive); in the test on MDA-N, 69.7 µM (inactive). Moreover, the GI50 in the test with TK-10 is 95.9 µM (inactive).

Regarding `Cc1nn(C(=O)c2ccc(Cl)cc2)c2c1C(c1ccccc1O)SC(=N)N2` (stereo not given), the GI50 in the test on HCT-116, in the test on SK-OV-3, in the test on CAKI-1, in the test on UACC-62, in the test on A549 and with Malme-3M was > 10 µM (inactive) throughout. The GI50 in the test on KM12, in the test on NCI-H522, with RPMI-8226, in the test on T47D, in the test with MCF7 and with U-251 was > 10 µM (inactive) throughout. Also, the GI50 in the test on SF-268 was > 10 µM (inactive); with HCT-15 it was above 10 µM; with HOP-62, > 10 µM (inactive); in the test with OVCAR-8, > 10 µM (inactive); in the test with OVCAR-5, > 10 µM (inactive); in the test on MDA-N, > 10 µM (inactive). Moreover, in the test on TK-10, the GI50 was > 10 µM (inactive).

Turning to `Cc1nn(C(=O)c2ccncc2)c2c1C(c1cccc([N+](=O)[O-])c1)SC(=N)N2` (stereo not given), the GI50 in the test with HCT-116, in the test on SK-OV-3, in the test with CAKI-1, with UACC-62, in the test on A549 and with Malme-3M was > 10 µM (inactive) throughout. Besides, the GI50 with KM12, in the test on NCI-H522, in the test with RPMI-8226, in the test with T47D, in the test with MCF7 and with U-251 was > 10 µM (inactive) throughout. For the same compound, the GI50 in the test on SF-268 was > 10 µM (inactive); with HCT-15, above 10 µM; in the test with HOP-62 it was > 10 µM (inactive); with OVCAR-8, > 10 µM (inactive); in the test with OVCAR-5 it was > 10 µM (inactive); with MDA-N, > 10 µM (inactive). Besides, the GI50 with TK-10 is > 10 µM (inactive).

For `CCOC(=O)c1[nH]c(Br)c(-c2ccc(Br)cc2)c1Br`, the GI50 in the test on HCT-116 was 0.376 µM (active); in the test with SK-OV-3, 1.69 µM (inactive); in the test with CAKI-1, 0.8 µM (active); in the test with UACC-62, 0.234 µM (active); in the test with A549, 0.863 µM (active); in the test on Malme-3M it was 0.38 µM (active). For the same compound, the GI50 in the test on KM12 was 0.459 µM (active); with NCI-H522, 0.378 µM (active); in the test with RPMI-8226, 6.73 µM (inactive); in the test with T47D, 2.39 µM (inactive); with MCF7 it was 1.87 µM (inactive); in the test on U-251, 0.454 µM (active). The GI50 is 0.543 µM (active) in the test with SF-268; 0.516 µM with HCT-15; 0.671 µM (active) in the test on HOP-62; 0.527 µM (active) in the test with OVCAR-8; 2.5 µM (inactive) with OVCAR-5; 0.213 µM (active) with MDA-N. In the test on TK-10, the GI50 is 3.23 µM (inactive).
